Laboratory results from PubChem BioAssay (NCI).
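Five compound concentrations were applied to cells in 96-well plates for 48 hours; endpoints were derived by simple linear interpolation of the resulting dose-response curve. TGI: total growth inhibition.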

The compounds below were run on A549 NSCLC (assay: NCI-60 cell line screen, 48 h).
With `c1cc(-c2ccc(-c3ccc(-c4ccc(-c5cccc6nsnc56)[nH]4)c4nsnc34)[nH]2)c2nsnc2c1` the TGI was over 100 µM.

Each compound was assayed on IGROV1 ovarian (assay: NCI-60 cell line screen, 48 h).
`C[C@]12CC[C@H](O)CC1=CC[C@@H]1C2CC[C@]2(C)c3n[nH]nc3CC12` (some centres undefined) was tested, and the TGI was over 100 µM.
Work on `O=C1C=CC(=O)c2c1ccc1c3ccccc3n(CCCCCCCCn3c4ccccc4c4ccc5c(c43)C(=O)C=CC5=O)c21` yielded a TGI of over 100 µM.
With `C=C1C(=O)O[C@@H]2O[C@@]3(C)CC[C@H]4[C@H](C)CC[C@@H]1[C@@]24O3` the TGI was 28.3 µM.
With `c1cc(-c2ccc(-c3ccc(-c4ccc(-c5cccc6nsnc56)[nH]4)c4nsnc34)[nH]2)c2nsnc2c1` the TGI was over 100 µM.

What follows are compounds tested on ACHN renal (assay: NCI-60 cell line screen, 48 h).
`C[C@]12CC[C@H](O)CC1=CC[C@@H]1C2CC[C@]2(C)c3n[nH]nc3CC12` (some centres undefined) gave a TGI of over 100 µM.
Work on `O=C1C=CC(=O)c2c1ccc1c3ccccc3n(CCCCCCCCn3c4ccccc4c4ccc5c(c43)C(=O)C=CC5=O)c21` yielded a TGI of over 100 µM.
With `N#CC[C@@H](O)COc1ccccc1` the TGI was over 100 µM.
`C=C1C(=O)O[C@@H]2O[C@@]3(C)CC[C@H]4[C@H](C)CC[C@@H]1[C@@]24O3` was tested, and the TGI was 26.9 µM.
In the case of `c1cc(-c2ccc(-c3ccc(-c4ccc(-c5cccc6nsnc56)[nH]4)c4nsnc34)[nH]2)c2nsnc2c1`, the TGI is reported as over 100 µM.

What follows are compounds tested on HOP-92 NSCLC (assay: NCI-60 cell line screen, 48 h).
For `C[C@]12CC[C@H](O)CC1=CC[C@@H]1C2CC[C@]2(C)c3n[nH]nc3CC12` (some centres undefined), the TGI was over 100 µM.
For `C=C1C(=O)O[C@@H]2O[C@@]3(C)CC[C@H]4[C@H](C)CC[C@@H]1[C@@]24O3`, the TGI was 12.4 µM.
In the case of `c1cc(-c2ccc(-c3ccc(-c4ccc(-c5cccc6nsnc56)[nH]4)c4nsnc34)[nH]2)c2nsnc2c1`, the TGI is reported as over 100 µM.

What follows are compounds tested on BT-549 breast (assay: NCI-60 cell line screen, 48 h).
Work on `C[C@]12CC[C@H](O)CC1=CC[C@@H]1C2CC[C@]2(C)c3n[nH]nc3CC12` (some centres undefined) yielded a TGI of over 100 µM.
With `O=C1C=CC(=O)c2c1ccc1c3ccccc3n(CCCCCCCCn3c4ccccc4c4ccc5c(c43)C(=O)C=CC5=O)c21` the TGI was over 100 µM.
Work on `N#CC[C@@H](O)COc1ccccc1` yielded a TGI of over 100 µM.
`C=C1C(=O)O[C@@H]2O[C@@]3(C)CC[C@H]4[C@H](C)CC[C@@H]1[C@@]24O3` showed a TGI of 22.2 µM.
In the case of `c1cc(-c2ccc(-c3ccc(-c4ccc(-c5cccc6nsnc56)[nH]4)c4nsnc34)[nH]2)c2nsnc2c1`, the TGI is reported as over 100 µM.

Each compound was assayed on SK-OV-3 ovarian (assay: NCI-60 cell line screen, 48 h).
`C[C@]12CC[C@H](O)CC1=CC[C@@H]1C2CC[C@]2(C)c3n[nH]nc3CC12` (some centres undefined) showed a TGI of over 100 µM.
Work on `O=C1C=CC(=O)c2c1ccc1c3ccccc3n(CCCCCCCCn3c4ccccc4c4ccc5c(c43)C(=O)C=CC5=O)c21` yielded a TGI of over 100 µM.
For `N#CC[C@@H](O)COc1ccccc1`, the TGI was over 100 µM.
With `C=C1C(=O)O[C@@H]2O[C@@]3(C)CC[C@H]4[C@H](C)CC[C@@H]1[C@@]24O3` the TGI was over 100 µM.
For `c1cc(-c2ccc(-c3ccc(-c4ccc(-c5cccc6nsnc56)[nH]4)c4nsnc34)[nH]2)c2nsnc2c1`, the TGI was over 100 µM.

The compounds below were run on SN12C renal (assay: NCI-60 cell line screen, 48 h).
For `C[C@]12CC[C@H](O)CC1=CC[C@@H]1C2CC[C@]2(C)c3n[nH]nc3CC12` (some centres undefined), the TGI was over 100 µM.
`O=C1C=CC(=O)c2c1ccc1c3ccccc3n(CCCCCCCCn3c4ccccc4c4ccc5c(c43)C(=O)C=CC5=O)c21` gave a TGI of over 100 µM.
In the case of `N#CC[C@@H](O)COc1ccccc1`, the TGI is reported as over 100 µM.
With `C=C1C(=O)O[C@@H]2O[C@@]3(C)CC[C@H]4[C@H](C)CC[C@@H]1[C@@]24O3` the TGI was 59.2 µM.
`c1cc(-c2ccc(-c3ccc(-c4ccc(-c5cccc6nsnc56)[nH]4)c4nsnc34)[nH]2)c2nsnc2c1` gave a TGI of over 100 µM.

What follows are compounds tested on HL-60(TB) leukemia (assay: NCI-60 cell line screen, 48 h).
For `C[C@]12CC[C@H](O)CC1=CC[C@@H]1C2CC[C@]2(C)c3n[nH]nc3CC12` (some centres undefined), the TGI was over 100 µM.
`O=C1C=CC(=O)c2c1ccc1c3ccccc3n(CCCCCCCCn3c4ccccc4c4ccc5c(c43)C(=O)C=CC5=O)c21` gave a TGI of over 100 µM.
`N#CC[C@@H](O)COc1ccccc1` gave a TGI of over 100 µM.
For `C=C1C(=O)O[C@@H]2O[C@@]3(C)CC[C@H]4[C@H](C)CC[C@@H]1[C@@]24O3`, the TGI was over 100 µM.
`c1cc(-c2ccc(-c3ccc(-c4ccc(-c5cccc6nsnc56)[nH]4)c4nsnc34)[nH]2)c2nsnc2c1` was tested, and the TGI was 30.1 µM.

The compounds below were run on OVCAR-4 ovarian (assay: NCI-60 cell line screen, 48 h).
With `C[C@]12CC[C@H](O)CC1=CC[C@@H]1C2CC[C@]2(C)c3n[nH]nc3CC12` (some centres undefined) the TGI was over 100 µM.
With `O=C1C=CC(=O)c2c1ccc1c3ccccc3n(CCCCCCCCn3c4ccccc4c4ccc5c(c43)C(=O)C=CC5=O)c21` the TGI was over 100 µM.
For `N#CC[C@@H](O)COc1ccccc1`, the TGI was over 100 µM.
For `C=C1C(=O)O[C@@H]2O[C@@]3(C)CC[C@H]4[C@H](C)CC[C@@H]1[C@@]24O3`, the TGI was 36.3 µM.
With `c1cc(-c2ccc(-c3ccc(-c4ccc(-c5cccc6nsnc56)[nH]4)c4nsnc34)[nH]2)c2nsnc2c1` the TGI was over 100 µM.

The compounds below were run on U251 CNS (assay: NCI-60 cell line screen, 48 h).
`C[C@]12CC[C@H](O)CC1=CC[C@@H]1C2CC[C@]2(C)c3n[nH]nc3CC12` (some centres undefined) showed a TGI of over 100 µM.
With `O=C1C=CC(=O)c2c1ccc1c3ccccc3n(CCCCCCCCn3c4ccccc4c4ccc5c(c43)C(=O)C=CC5=O)c21` the TGI was over 100 µM.
With `N#CC[C@@H](O)COc1ccccc1` the TGI was over 100 µM.
`C=C1C(=O)O[C@@H]2O[C@@]3(C)CC[C@H]4[C@H](C)CC[C@@H]1[C@@]24O3` showed a TGI of over 100 µM.
Work on `c1cc(-c2ccc(-c3ccc(-c4ccc(-c5cccc6nsnc56)[nH]4)c4nsnc34)[nH]2)c2nsnc2c1` yielded a TGI of over 100 µM.

These compounds were tested on M14 melanoma (assay: NCI-60 cell line screen, 48 h).
`C[C@]12CC[C@H](O)CC1=CC[C@@H]1C2CC[C@]2(C)c3n[nH]nc3CC12` (some centres undefined) gave a TGI of over 100 µM.
Work on `O=C1C=CC(=O)c2c1ccc1c3ccccc3n(CCCCCCCCn3c4ccccc4c4ccc5c(c43)C(=O)C=CC5=O)c21` yielded a TGI of over 100 µM.
`N#CC[C@@H](O)COc1ccccc1` gave a TGI of over 100 µM.
Work on `C=C1C(=O)O[C@@H]2O[C@@]3(C)CC[C@H]4[C@H](C)CC[C@@H]1[C@@]24O3` yielded a TGI of over 100 µM.
Compound `c1cc(-c2ccc(-c3ccc(-c4ccc(-c5cccc6nsnc56)[nH]4)c4nsnc34)[nH]2)c2nsnc2c1` has a TGI of over 100 µM.

What follows are compounds tested on MOLT-4 leukemia (assay: NCI-60 cell line screen, 48 h).
`C[C@]12CC[C@H](O)CC1=CC[C@@H]1C2CC[C@]2(C)c3n[nH]nc3CC12` (some centres undefined) was tested, and the TGI was over 100 µM.
In the case of `O=C1C=CC(=O)c2c1ccc1c3ccccc3n(CCCCCCCCn3c4ccccc4c4ccc5c(c43)C(=O)C=CC5=O)c21`, the TGI is reported as over 100 µM.
`N#CC[C@@H](O)COc1ccccc1` showed a TGI of over 100 µM.
`C=C1C(=O)O[C@@H]2O[C@@]3(C)CC[C@H]4[C@H](C)CC[C@@H]1[C@@]24O3` gave a TGI of 38.9 µM.
Work on `c1cc(-c2ccc(-c3ccc(-c4ccc(-c5cccc6nsnc56)[nH]4)c4nsnc34)[nH]2)c2nsnc2c1` yielded a TGI of over 100 µM.

These compounds were tested on MALME-3M melanoma (assay: NCI-60 cell line screen, 48 h).
`C[C@]12CC[C@H](O)CC1=CC[C@@H]1C2CC[C@]2(C)c3n[nH]nc3CC12` (some centres undefined) was tested, and the TGI was over 100 µM.
Work on `O=C1C=CC(=O)c2c1ccc1c3ccccc3n(CCCCCCCCn3c4ccccc4c4ccc5c(c43)C(=O)C=CC5=O)c21` yielded a TGI of over 100 µM.
`N#CC[C@@H](O)COc1ccccc1` showed a TGI of over 100 µM.
Work on `C=C1C(=O)O[C@@H]2O[C@@]3(C)CC[C@H]4[C@H](C)CC[C@@H]1[C@@]24O3` yielded a TGI of 86.4 µM.
Compound `c1cc(-c2ccc(-c3ccc(-c4ccc(-c5cccc6nsnc56)[nH]4)c4nsnc34)[nH]2)c2nsnc2c1` has a TGI of over 100 µM.

These compounds were tested on DU-145 prostate (assay: NCI-60 cell line screen, 48 h).
`C[C@]12CC[C@H](O)CC1=CC[C@@H]1C2CC[C@]2(C)c3n[nH]nc3CC12` (some centres undefined) gave a TGI of over 100 µM.
Work on `O=C1C=CC(=O)c2c1ccc1c3ccccc3n(CCCCCCCCn3c4ccccc4c4ccc5c(c43)C(=O)C=CC5=O)c21` yielded a TGI of over 100 µM.
`N#CC[C@@H](O)COc1ccccc1` was tested, and the TGI was over 100 µM.
With `C=C1C(=O)O[C@@H]2O[C@@]3(C)CC[C@H]4[C@H](C)CC[C@@H]1[C@@]24O3` the TGI was 27.5 µM.
Compound `c1cc(-c2ccc(-c3ccc(-c4ccc(-c5cccc6nsnc56)[nH]4)c4nsnc34)[nH]2)c2nsnc2c1` has a TGI of over 100 µM.

What follows are compounds tested on SNB-19 CNS (assay: NCI-60 cell line screen, 48 h).
`C[C@]12CC[C@H](O)CC1=CC[C@@H]1C2CC[C@]2(C)c3n[nH]nc3CC12` (some centres undefined) was tested, and the TGI was over 100 µM.
Compound `O=C1C=CC(=O)c2c1ccc1c3ccccc3n(CCCCCCCCn3c4ccccc4c4ccc5c(c43)C(=O)C=CC5=O)c21` has a TGI of over 100 µM.
`N#CC[C@@H](O)COc1ccccc1` gave a TGI of over 100 µM.
With `C=C1C(=O)O[C@@H]2O[C@@]3(C)CC[C@H]4[C@H](C)CC[C@@H]1[C@@]24O3` the TGI was over 100 µM.
`c1cc(-c2ccc(-c3ccc(-c4ccc(-c5cccc6nsnc56)[nH]4)c4nsnc34)[nH]2)c2nsnc2c1` gave a TGI of over 100 µM.

The compounds below were run on TK-10 renal (assay: NCI-60 cell line screen, 48 h).
Compound `C[C@]12CC[C@H](O)CC1=CC[C@@H]1C2CC[C@]2(C)c3n[nH]nc3CC12` (some centres undefined) has a TGI of over 100 µM.
